Experimental data as given in ChEMBL document CHEMBL1142219, “Discovery of platencin, a dual FabF and FabH inhibitor with in vivo antibiotic properties” (Proc Natl Acad Sci U S A, 2007).
In brackets after ≈: the same amount, converted by molar mass. Activity calls are given as the source filed them. No cut-off for these calls is given here.

Tests used:
[1] = Toxicity in human RBC assessed as drug level causing hemolysis; type: cell-based; conditions: erythrocyte
Staphylococcus aureus [2] = test: Inhibition of DNA biosynthesis in Staphylococcus aureus upto 50 ug/ml in whole cell activity assay; type: functional, organism-based
[3] = Inhibition of Staphylococcus aureus FabH assessed as reduced accumulation of acetoacetyl-ACP by FabF/FabH PAGE elongation assay
[4] = Inhibition of Staphylococcus aureus FabH by direct binding assay
Streptococcus pneumoniae [5] = test: Antibacterial activity against Streptococcus pneumoniae; type: functional
Escherichia coli [6] = test: Antibacterial activity against wild type Escherichia coli; type: functional
Staphylococcus aureus [7] = test: Antibacterial activity against vancomycin-intermediate resistant Staphylococcus aureus; type: functional
Staphylococcus aureus [8] = test: Antibacterial activity against methicillin and linezolid-resistant Staphylococcus aureus; type: functional
[9] = biological target: T1, Malonyl CoA-acyl carrier protein transacylase (Staphylococcus aureus) (UniProt Q93QD4); test: Inhibition of Staphylococcus aureus FabD assessed as reduced malonyl-ACP levels
T1 sequence (whole entry): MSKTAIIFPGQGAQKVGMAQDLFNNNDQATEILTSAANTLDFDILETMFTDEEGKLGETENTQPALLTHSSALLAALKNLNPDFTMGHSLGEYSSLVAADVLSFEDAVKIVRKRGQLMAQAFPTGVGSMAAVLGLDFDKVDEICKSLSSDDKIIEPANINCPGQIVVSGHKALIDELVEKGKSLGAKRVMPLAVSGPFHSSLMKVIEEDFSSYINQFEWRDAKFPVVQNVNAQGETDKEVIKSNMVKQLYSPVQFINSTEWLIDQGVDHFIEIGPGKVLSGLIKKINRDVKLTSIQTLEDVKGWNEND

Enterococcus faecalis = test: Antibacterial activity against macrolide-resistant Enterococcus faecalis; type: functional
Candida albicans = test: Antifungal activity against Candida albicans; type: functional
Enterococcus faecium = test: Antibacterial activity against vancomycin-resistant Enterococcus faecium; type: functional
Staphylococcus aureus [10] = test: Inhibition of protein biosynthesis in Staphylococcus aureus upto 50 ug/ml in whole cell activity assay; type: functional, organism-based
[11] = Inhibition of Staphylococcus aureus FabF assessed as reduced accumulation of long chain beta-ketoacyl-ACP by FabF/FabH PAGE elongation assay
Staphylococcus aureus [12] = test: Antibacterial activity against methicillin-resistant Staphylococcus aureus; type: functional
Staphylococcus aureus [13] = test: Antibacterial activity against methicillin-sensitive Staphylococcus aureus; type: functional
Streptococcus pneumoniae [14] = test: Inhibition of fatty acid synthesis in Streptococcus pneumoniae in whole cell activity assay; type: functional, organism-based
Staphylococcus aureus [15] = test: Antibacterial activity against Staphylococcus aureus in presence of serum; type: functional
Staphylococcus aureus [16] = test: Antibacterial activity against methicillin and macrolide-resistant Staphylococcus aureus; type: functional
Staphylococcus aureus [17] = test: Inhibition of fatty acid synthesis in Staphylococcus aureus in whole cell activity assay; type: functional, organism-based
Staphylococcus aureus [18] = test: Inhibition of cell wall biosynthesis in Staphylococcus aureus upto 50 ug/ml in whole cell activity assay; type: functional, organism-based
HeLa = test: Cytotoxicity against human HeLa cells by MTT assay; type: functional, cell-based
Escherichia coli [19] = test: Antibacterial activity against efflux negative-tolC mutant containing Escherichia coli; type: functional
Staphylococcus aureus [20] = test: Inhibition of RNA biosynthesis in Staphylococcus aureus upto 50 ug/ml in whole cell activity assay; type: functional, organism-based
Staphylococcus aureus [21] = test: Antibacterial activity against Staphylococcus aureus expressing antisense fabF assessed as drug level causing >5 mm zone of inhibition after 18 hrs by agar diffusion two plate differential sensitivity antisense assay; type: functional
Staphylococcus aureus [22] = test: Inhibition of Staphylococcus aureus FabF assessed as reduced accumulation of long chain beta-ketoacyl-ACP at 20 ug/ml by FabF/FabH PAGE elongation assay
Staphylococcus aureus [23] = test: Inhibition of Staphylococcus aureus FabF assessed as reduced accumulation of long chain beta-ketoacyl-ACP at 2 ug/ml by FabF/FabH PAGE elongation assay
[24] = Inhibition of Staphylococcus aureus FabF assessed as reduced accumulation of acetoacetyl-ACP by FabF/FabH PAGE elongation assay
[25] = Inhibition of Staphylococcus aureus FabF by direct binding assay
Staphylococcus aureus [26] = test: Antibacterial activity against methicillin-sensitive Staphylococcus aureus infected mouse kidney assessed as log reduction of bacterial count at 150 ug/hr after 24 hrs; type: functional
[27] = Inhibition of Staphylococcus aureus FabH assessed as reduced accumulation of long chain beta-ketoacyl-ACP by FabF/FabH PAGE elongation assay
Mus musculus = species: Mus musculus; test: Toxicity in methicillin-sensitive Staphylococcus aureus infected mouse model at 150 ug/hr after 24 hrs; type: organism-based; conditions: in vivo

SMILES	Activity [1]	IC50 [3]	IC50 [4]	MIC (Streptococcus pneumoniae [5])	MIC (Escherichia coli [6])	MIC (Staphylococcus aureus [7])	MIC (Staphylococcus aureus [8])	Activity [9]	MIC (Enterococcus faecalis)	MIC (Candida albicans)	MIC (Enterococcus faecium)	MIC (Staphylococcus aureus [12])	MIC (Staphylococcus aureus [13])	IC50 (Streptococcus pneumoniae [14])	MIC (Staphylococcus aureus [15])	MIC (Staphylococcus aureus [16])	IC50 (Staphylococcus aureus [17])	IC50 (HeLa)	MIC (Escherichia coli [19])	Activity (Staphylococcus aureus [21])	also measured
O=C(N[C@H](CO)[C@H](O)c1ccc([N+](=O)[O-])cc1)C(Cl)Cl [CHLORAMPHENICOL]	> 64 µg/mL																				
CC12C[C@@]34C=CC(=O)[C@@](C)(CCC(=O)Nc5c(O)ccc(C(=O)O)c5O)C3[C@H](CC1C4)O2 (stereo partly specified) [PLATENSIMYCIN]	> 67 µg/mL	247 µM	67 µM	1 µg/mL (≈ 2.27 µM)	> 64 µg/mL	0.5 µg/mL (≈ 1.13 µM)	1 µg/mL (≈ 2.27 µM)	inactive	1 µg/mL (≈ 2.27 µM)	> 64 µg/mL	0.1 µg/mL (≈ 0.227 µM)	0.5 µg/mL (≈ 1.13 µM)	0.5 µg/mL (≈ 1.13 µM)	0.8 µg/mL (≈ 1.81 µM)	2 µg/mL	0.5 µg/mL (≈ 1.13 µM)	0.1 µg/mL (≈ 0.227 µM)	> 1000 µg/mL	16 µg/mL (≈ 36.2 µM)	0.004 µg	Activity (Staphylococcus aureus [2]): inactive; Activity (Staphylococcus aureus [10]): inactive; IC50 [11]: 0.29 µM; Activity (Staphylococcus aureus [18]): inactive; Activity (Staphylococcus aureus [20]): inactive
O=C(O)c1cc2cc(OCc3c(Cl)cccc3Cl)ccc2n1Cc1cc2c(cc1Cl)OCO2		3.96 µM																			inhibition (Staphylococcus aureus [22]): 90%; inhibition (Staphylococcus aureus [23]): 50%
C[C@@H]1[C@H](O)[C@@H](C)/C=C/C=C/C=C/C=C/C=C/C=C/C=C/[C@H](O[C@@H]2O[C@H](C)[C@@H](O)[C@H](N)[C@@H]2O)C[C@@H]2O[C@](O)(C[C@@H](O)C[C@@H](O)[C@H](O)CC[C@@H](O)C[C@@H](O)CC(=O)O[C@H]1C)C[C@H](O)[C@H]2C(=O)O [AMPHOTERICIN B]	2 µg/mL																				
CC(=O)NC[C@H]1CN(c2ccc(N3CCOCC3)c(F)c2)C(=O)O1 [LINEZOLID]	> 67 µg/mL				> 64 µg/mL		32 µg/mL (≈ 94.9 µM)			> 64 µg/mL	2 µg/mL (≈ 5.93 µM)							> 100 µg/mL	32 µg/mL (≈ 94.9 µM)		
C=C1C[C@@]23C=CC(=O)[C@@](C)(CCC(=O)Nc4c(O)ccc(C(=O)O)c4O)[C@@H]2C[C@@H]1CC3 [PLATENCIN]	> 67 µg/mL		16.2 µM	4 µg/mL (≈ 9.4 µM)	> 64 µg/mL	0.5 µg/mL (≈ 1.18 µM)	1 µg/mL (≈ 2.35 µM)	inactive	2 µg/mL (≈ 4.7 µM)	> 64 µg/mL	< 0.06 µg/mL	1 µg/mL (≈ 2.35 µM)	0.5 µg/mL (≈ 1.18 µM)	2.7 µg/mL (≈ 6.35 µM)	8 µg/mL	1 µg/mL (≈ 2.35 µM)	0.19 µg/mL (≈ 0.447 µM)	> 100 µg/mL	2 µg/mL (≈ 4.7 µM)	0.002 µg	IC50 [24]: 4.58 µM; IC50 [25]: 0.113 µM; Activity (Staphylococcus aureus [26]): 3; IC50 [27]: 9.17 µM; Activity (Mus musculus): Non-toxic
